How the values were obtained:
[1] = target: T1, FKP (bacterial L-fucokinase/GDP-fucose pyrophosphorylase) (Bacteroides fragilis, UniProt Q58T34); experiment: Enzymatic conversion by FKP into the sugar nucleotide; type: biochemical
T1 sequence (Q58T34 1-949): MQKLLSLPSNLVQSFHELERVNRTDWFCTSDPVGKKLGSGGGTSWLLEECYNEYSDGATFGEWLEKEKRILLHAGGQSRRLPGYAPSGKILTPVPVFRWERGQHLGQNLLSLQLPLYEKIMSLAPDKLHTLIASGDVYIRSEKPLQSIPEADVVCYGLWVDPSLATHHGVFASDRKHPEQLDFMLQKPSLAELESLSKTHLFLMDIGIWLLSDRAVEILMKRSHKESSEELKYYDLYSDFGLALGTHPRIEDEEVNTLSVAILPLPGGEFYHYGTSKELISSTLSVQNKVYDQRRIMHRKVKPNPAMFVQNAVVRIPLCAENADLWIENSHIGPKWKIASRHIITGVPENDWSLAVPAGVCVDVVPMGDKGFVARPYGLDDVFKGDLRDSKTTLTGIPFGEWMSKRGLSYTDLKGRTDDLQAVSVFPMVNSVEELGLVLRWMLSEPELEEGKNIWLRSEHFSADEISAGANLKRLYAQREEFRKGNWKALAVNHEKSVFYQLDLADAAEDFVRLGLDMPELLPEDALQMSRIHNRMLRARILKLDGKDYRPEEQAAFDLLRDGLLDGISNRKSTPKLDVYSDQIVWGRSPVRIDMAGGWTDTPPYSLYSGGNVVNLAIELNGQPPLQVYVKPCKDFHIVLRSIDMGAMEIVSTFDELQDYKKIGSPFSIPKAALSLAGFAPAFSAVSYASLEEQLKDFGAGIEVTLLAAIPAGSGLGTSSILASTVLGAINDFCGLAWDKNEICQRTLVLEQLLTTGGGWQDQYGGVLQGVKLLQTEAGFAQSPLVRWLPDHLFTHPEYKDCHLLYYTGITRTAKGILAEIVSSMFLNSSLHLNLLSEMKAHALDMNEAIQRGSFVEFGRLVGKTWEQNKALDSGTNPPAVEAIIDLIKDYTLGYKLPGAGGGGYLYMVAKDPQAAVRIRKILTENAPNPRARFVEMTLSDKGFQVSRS

HL-60 cells = experiment: Cell surface fucosylation, flow cytometry with lectin AAL staining; type: cell-based; conditions: 4 to 500 μM, 3 days, normalized to DMSO as 100%
FUT6 = conditions: read-out: Km as donor for FUT6; cited from earlier work
FUT8 = conditions: read-out: Km as donor for FUT8; cited from earlier work

SMILES: [N-]=[N+]=NC[C@@H]1OC(O)[C@@H](F)[C@H](O)[C@@H]1O (stereo partly shown) [6‐N3‐2‐F‐Fuc]
- conversion by FKP into the corresponding sugar nucleotide product [1]: unable to catalyze the conversion

SMILES: CC(=O)O[C@@H]1O[C@@H](C)[C@@H](OC(C)=O)[C@@H](OC(C)=O)[C@@H]1OC(C)=O [Ac‐fucose]
- effect on cell surface fucosylation (HL-60 cells): enhanced fucosylation

SMILES: Nc1nc2c(ncn2C2OC(COP(=O)(O)OP(=O)(O)OC3OC(CNC(=O)Cc4ccc5ccccc5c4)C(O)C(O)C3O)C(O)C2O)c(=O)[nH]1 (stereo not shown) [6‐deoxy‐6‐N‐(2‐naphthylacetyl)‐GDP‐fucose]
- Km (FUT6): 0.94 µM
- Km (FUT8): 175 µM
